ChEMBL document CHEMBL1133203, “Synthesis of L-(+)-3-(3-hydroxy-4-pivaloyloxybenzyl)-2,5-diketomorpholine as potential prodrug of L-dopa” (Bioorg Med Chem Lett, 2000)
In brackets after ≈: the same amount, converted by molar mass.

What was measured:
[1] = Rate constant in chemical and enzymatic hydrolysis to form L-DOPA, in 80% human plasma; format: ADME, cell-free
[2] = Half-life in chemical and enzymatic hydrolysis, in buffer at pH 7.4; format: ADME
[3] = Rate constant in chemical and enzymatic hydrolysis to form another compound (8)*, in 80% human plasma (experiment 2); format: ADME, cell-free
[4] = Half-life in chemical and enzymatic hydrolysis, in 80% rat plasma; format: ADME
[5] = species on record: Rattus norvegicus; assay: Rate constant in chemical and enzymatic hydrolysis, in 80% rat plasma; format: ADME
[6] = Rate constant in chemical and enzymatic hydrolysis to form another compound (8)*, in 80% human plasma (experiment 1); format: ADME, cell-free
[7] = Aqueous solubility was evaluated; format: physicochemical; conditions: buffer
[8] = Rate constant in chemical and enzymatic hydrolysis, in buffer at pH 7.4; format: ADME
[9] = Half-life in chemical and enzymatic hydrolysis, in buffer at pH 1.3; format: ADME
[10] = Rate constant in chemical and enzymatic hydrolysis, in buffer at pH 1.3; format: ADME
[11] = Partition coefficient is determined in octanol/buffer solution at pH 7.4; format: physicochemical

| Compound | K obs [1] | half-life [2] | K obs [3] | half-life [4] | K obs [5] | K obs [6] | solubility [7] | K obs [8] | half-life [9] | K obs [10] | logD [11] |
| --- | --- | --- | --- | --- | --- | --- | --- | --- | --- | --- | --- |
| O=C1COC(=O)[C@H](Cc2ccc(O)c(O)c2)N1 | 0.0047 min⁻¹ |  |  |  |  |  |  |  |  |  |  |
| CC(C)(C)C(=O)Oc1ccc(C[C@@H]2NC(=O)COC2=O)cc1O |  | 92.8 min | 0.019 min⁻¹ | 2.7 min | 0.29 min⁻¹ | 0.019 min⁻¹ | 50 µg/mL (≈ 156 µM) | 0.0075 min⁻¹ | 2.18 days | 0.00022 min⁻¹ | 2.15 |
